{"source": "patent US12011447B2", "about": "“Pharmaceutical composition for treating thyroid cancer comprising tyrosine kinase activity inhibitor as active ingredient” (Kyungpook National University Industry-Academic Cooperation …, priority 2017, dated 2024)", "key": {"[1]": {"test_system": "NIS (sodium iodide symporter)", "assay": "Western blot of endogenous NIS protein (total, membrane, cytosolic)", "format": "cell-based, human", "protocol": "(§1) 8505C-PNIS-PCMV cells were treated with TKI-0266 and incubated for 24 hours, and then the cell pellet was washed twice with cold phosphate-buffered saline (hereinafter referred to as PBS). An RIPA buffer (Thermo Fisher Scientific, USA) containing a protease/phosphatase cocktail inhibitor kit (Thermo Fisher Scientific) was added to the cell pellet to lyse the cells. The lysed cells were gently vortexed three times at a time interval, and centrifuged at 13000xg at 4° C. to isolate a soluble protein. The isolated protein was quantified using a BCA protein assay kit (Thermo Fisher Scientific).\nMembrane protein and cytosolic protein were isolated using Mem-PET™ plus kit (Thermo Fisher scientific) according to the manufacturer's protocols. Briefly, the collected cell pellet was washed with a cell wash solution and centrifuged at 300xg for 5 minutes, and this washing and centrifugation process was repeated two times. After centrifugation, the supernatant was discarded, and a permeabilization buffer was added to the cell pellet, followed by vortexing. Thereafter, the cell pellet was left to stand at 4° C. for 10 minutes with continuous stirring. After centrifugation, the supernatant containing cytosolic protein was collected, and a solubilization buffer was added to the remaining cell pellet which was then left to stand at 4° C. for 10 minutes with continuous stirring. After centrifugation again at 300xg for 5 minutes, the membrane protein was transferred into a fresh tube.\n(§2) Equal amounts of proteins were separated by 10% SDS-PAGE (sodium dodecyl sulfate-polyacrylamide gel electrophoresis), and then the proteins were transferred to PVDF membranes (Millipore, USA). The PVDF membrane was blocked with 3% BSA (bovine serum albumin) in TBS containing Tween-20 (TBS-T) for 1 hour, and incubated with primary antibodies in 0.5% BSA overnight at 4° C. The next day, the PVDF membrane was incubated with HRP-conjugated secondary antibodies at room temperature for 1 hour, and washed three times with TBS-T. The protein bands were visualized using ECL detection reagent (GE Healthcare Life Sciences, Italy) and the Fusion FX chemiluminescence analyzer system (Vilber lourmat, France). […]"}, "p-AKT": {"test_system": "p-AKT", "assay": "Western blot of phosphorylated AKT", "format": "cell-based, human", "conditions": "8505C-PNIS-PCMV cells", "protocol": "as §1, §2"}, "p-ERK": {"test_system": "p-ERK", "assay": "Western blot of phosphorylated ERK", "format": "cell-based, human", "conditions": "8505C-PNIS-PCMV cells", "protocol": "as §1, §2"}, "8505C cells": {"test_system": "8505C cells", "assay": "131I clonogenic assay", "format": "cell-based, human", "protocol": "8505C cells (4×10^5) cells were seeded in a six-well plate, and then treated with TKI-0266 and incubated for 24 hours. Next, the medium was removed, and the cells were washed twice with bHBSS, and then incubated in the presence or absence of 50 μCi/ml ^131I (KIRAMS, Korea) containing 30 μM NaI for 7 hours at 37° C. After incubation, the cells were washed twice with bHBSS, re-seeded in a new six-well plate at a density of 1,000 cells/well, and then incubated for 7 days to induce colony formation. On day 7, the medium was removed and the cells were washed twice with PBS. A fixation buffer containing acetic acid:methanol at a ratio of 1:7 was added to the cells and the plate was left to stand at room temperature for 5 minutes to fix colonies. The fixed colonies were stained with 0.05% crystal violet for 1 hour and immersed in tap water to remove crystal violet. The colonies containing 50 or more cells were counted. Percentage inhibition was calculated as the number of colonies formed in the TKI-0266-treated group relative to the vehicle control."}, "NIS [2]": {"test_system": "NIS", "assay": "Immunofluorescence microscopy of NIS", "format": "cell-based, human", "conditions": "anaplastic thyroid cancer cells, 24 hours", "protocol": "8505C cells were seeded in a plate at a density of 2×10^5 cells and treated with the TKI inhibitor TKI-0266. After 24 hours, the cells were fixed with 4% paraformaldehyde for 30 minutes at room temperature and washed three times with PBS for 10 minutes each wash. Next, the cells were treated with PBS containing 0.7% Triton for 10 minutes at room temperature and quenched with PBS containing 50 mM NH4Cl for 10 minutes at room temperature. The cells were washed three times with PBS for 5 minutes each wash, and then blocked with 5% BSA-containing PBS and incubated with anti-NIS primary antibody (diluted at 1:50; Abcam, UK) overnight at 4° C. The next day, the cells were washed three times with PBS for 10 minutes each wash and incubated with Alexa-Fluor 488-conjugated secondary antibody (diluted at 1:300; Thermo Fisher Scientific) 1 hour. After 1 hour, the cells were washed three times with PBS for 10 minutes for each wash, and mounted on a coverslip using a Vecta mounting medium (Vector Laboratories, USA) containing 4′,6-diamidino-2-phenylindole (DAPI). NIS staining was observed by confocal laser microscopy (Zeiss, LSM 5 exciter, Germany)."}, "NIS [3]": {"test_system": "NIS", "assay": "Immunohistochemistry of NIS in tumor tissue", "format": "in vivo, Balb/c nude mice", "conditions": "xenograft tumor sections", "text": "(§3) At the end of the experiment, the mice were sacrificed, and the tumors were isolated from the mouse's right flank and fixed overnight with 4% formalin. The isolated tumors were embedded in paraffin, sectioned to a 4-μm thickness, and mounted on slides. The tumor sections on the slides were de-paraffinized and stained with hematoxylin & eosin. For immunohistochemistry, NIS (Thermo Fisher Scientific; diluted at 1:200) and cleaved caspase-3 (Cell signaling; diluted at 1:200) antibodies were used."}, "cleaved caspase-3": {"test_system": "cleaved caspase-3", "assay": "Immunohistochemistry of cleaved caspase-3 in tumor tissue", "format": "in vivo, Balb/c nude mice", "conditions": "co-administered with 131I and TKI-0266", "text": "as §3"}}, "data": [{"smiles": "Cc1cc2c(N(C)C3CCCCC3)ncnc2s1", "note": "[TKI-0266]", "values": [{"measurement": "expression of endogenous NIS protein", "setting": "[1]; 8505C-PNIS-PCMV cells, 24 hours, Western blot", "result": "significantly increased"}, {"measurement": "treatment concentration with the highest NIS protein expression", "setting": "[1]; 8505C-PNIS-PCMV cells, Western blot", "result": 12.5, "unit": "µM"}, {"measurement": "expression of cytosolic NIS protein", "setting": "[1]; cytosolic protein fraction", "result": "uptick"}, {"measurement": "expression of membrane NIS protein", "setting": "[1]; membrane protein fraction", "result": "increased mainly in the cell membrane"}, {"measurement": "level of phosphorylated-AKT (p-AKT) protein vs vehicle", "setting": "p-AKT", "result": "little difference"}, {"measurement": "level of phosphorylated ERK (p-ERK) protein", "setting": "p-ERK", "result": "significantly decreased"}, {"measurement": "colony-forming ability compared to vehicle group", "setting": "8505C cells; TKI-0266 alone", "result": "decreased"}, {"measurement": "colony-forming ability compared to vehicle, 131I-treated and TKI-0266-treated groups", "setting": "8505C cells; co-treated with 131I and TKI-0266", "result": "significantly decreased"}, {"measurement": "expression of endogenous NIS (immunofluorescence)", "setting": "NIS [2]", "result": "robust"}, {"measurement": "expression of NIS-specific protein in tumor tissue (immunohistochemistry)", "setting": "NIS [3]", "result": "high"}, {"measurement": "expression of cleaved caspase-3 indicating cell death (immunohistochemistry)", "setting": "cleaved caspase-3", "result": "the highest"}]}]}
